# In patent publication US8048915B2, “Biologically active complex” (BioMas Ltd., priority 2001, dated 2011):
# “And” between values parts separate entries of the source, which are not always exact repeats. Identical values can stand only once. Like-named read-outs stand apart in the source and are kept apart here.
# Assays:
# [1] = Solubility in phosphate buffer solution (PBS) at pH7; type: physicochemical
# [2] = tested on: IL-2 receptors of human mononuclear cells; test: Induction of IL-2 receptors of human mononuclear cells (proliferation with recombinant IL-2, 3H thymidine uptake); type: cell-based
# Method: Human MNC were brought to a concentration of 10^6 cells/ml. RPMI+10% FCS. Aliquots of 0.2 ml. were placed in duplicate wells of microdishes and plates were incubated at 37° C. for 24 hrs. […] Plates were further incubated for 48 hrs and labeled with ^3H thymidine 24 hrs before harvesting. The proliferation was measured by ^3HT uptake as described by Gillis et al, J. Immunol. […] The results are expressed in counts per minute.
# [3] = tested on: human mononuclear cells; test: Proliferation of human mononuclear cells (Example 14); type: cell-based; settings: 72 hours + 24 hours label
# [4] = tested on: human mononuclear cells; test: as above; type: cell-based; settings: for proliferation of human mononuclear cells (3H methyl-thymidine): 72 hours + 24 hours label
# Method: Human mononuclear cells were obtained by layering heparinized blood over a Ficoll/Hypaque gradient. The mononuclear cells were resuspended in enriched RPMI, rinsed three times and brought to a concentrations of 5×10^5cells/ml enriched RPMI. Varying concentrations of the complexes of Ex. 1 and Ex. 7(a), ranging from 0.005 μg to 5 μg/cell mixture were added to the cells. Aliquots of 0.2 ml of each sample were placed in wells of microplates (triplicates).
# [5] = tested on: IL-2 receptors; test: IL-2 receptor sites on human mononuclear cells, fluoresceinated antibody; type: cell-based
# Method: This example provides an assay to detect the presence of receptor sites for IL-2. […] The cells were washed twice with PBS and then incubated with a specific fluoresceinated antibody against IL-2 receptors as described in Uchiyama et al, J. Immunol.
# [6] = tested on: Ha-Ras transformed NIH-3T3 cells; test: Colony growth of Ha-Ras transformed NIH-3T3 cells; type: cell-based; settings: 0.005-5 μg/ml in PBS; one week; clones counted
# Method: (§1) 5×10^2 cells were plated per 60 mm dish and incubated with different concentrations (0.005-5 μg/ml) of the complex in PBS. A week later, the cells were stained with Gimsa and clones were counted. Similar experiments were conducted using V-mos transformed NIH-3T3 cells, and also using Ph2TeCl2 and Ph3TeCl, with both types of transformed cells.
# [7] = tested on: V-mos transformed NIH-3T3 cells; test: Colony growth of V-mos transformed NIH-3T3 cells; type: cell-based; settings: one week; clones counted
# Method: as §1
# [8] = tested on: IL-2
# Method: The complexes were administered in these dilutions, as drinking water, to male Balb-C mice, 6-8 weeks of age over a 4 day period. The exact amount of liquid intake was recorded daily. […] The cells were incubated at a concentration of 10^7 cells/ml in enriched RPMI containing 2 μg/ml of con-A for 24 hours at 37° C. The supernatants were collected and tested for IL-2 content.
# [9] = tested on: human mononuclear cells; settings: range of 1 to 10 ng/ml of cells; 72 hours incubation
# Method: Aliquots of 0.2 ml from each sample were placed in wells of microplates (NUNC) (triplicates). […] Cells were further incubated overnight and harvested with a cell harvester.
# Cells were further incubated overnight and harvested with a cell harvester.
# [10] = 10 μg/ml H2O as drinking water over 4 days
compound,measurement,setting,value
C1CO[Te]2(O1)OCCO2 [preparation 3],solubility,[1],16 ± 0.4; mg Te/100 ml PBS
"equimolar complex of TeO2 and ethane-1,2-diol [7(b)]","proliferation, 3HT uptake","[2]; Test B, 1 μg/ml",2620 counts per minute
same,"proliferation, 3HT uptake","[2]; Test B, 1 × 10^−2 μg/ml",3928 counts per minute
same,"proliferation, 3HT uptake","[2]; Test B, 1 × 10^−3 μg/ml",3007 counts per minute
same,"proliferation, 3HT uptake","[2]; Test B, 1 × 10^−4 μg/ml",2327 counts per minute
same,"proliferation, 3HT uptake","[2]; Test B, 1 × 10^−5 μg/ml",2242 counts per minute
same,"proliferation, 3HT uptake","[2]; Test B, 5 × 10^−1 μg/ml",2402 counts per minute
same,"proliferation, 3HT uptake","[2]; Test B, 5 × 10^−2 μg/ml",3290 counts per minute
same,"proliferation, 3HT uptake","[2]; Test B, 7 × 10^−1 μg/ml",2000 counts per minute
"Cl[Te](Cl)(Cl)Cl [TeCl4, tellurium tetrachloride]",solubility,[1],2.3 ± 0.1; mg Te/100 ml PBS
"O=[Te]=O [TeO2, Tellurium dioxide, reference compound]",proliferation of human mononuclear cells (3H methyl-thymidine),[3]; 1 × 10^−3 μg/ml,6168
same,proliferation of human mononuclear cells (3H methyl-thymidine),[3]; 1 × 10^−4 μg/ml,5331
same,proliferation of human mononuclear cells (3H methyl-thymidine),[4]; 1 μg/ml,2842
same,proliferation of human mononuclear cells (3H methyl-thymidine),[4]; 5 μg/ml,3028
same,proliferation of human mononuclear cells (3H methyl-thymidine),[4]; 1 × 10^−1 μg/ml,4825
same,proliferation of human mononuclear cells (3H methyl-thymidine),[4]; 1 × 10^−2 μg/ml,4730
same,proliferation of human mononuclear cells (3H methyl-thymidine),[4]; 5 × 10^−1 μg/ml,4773
same,proliferation of human mononuclear cells (3H methyl-thymidine),[4]; 5 × 10^−2 μg/ml,5802
same,effect on proliferation of human mononuclear cells,[4]; any concentration that was tested,*The concentrations that induced proliferation range from 5 × 10^−1 to 1 × 10^−1 μg. No significant effect was found for TeO2 at any concentration that was tested.
same,"proliferation, 3HT uptake","[2]; Test A, 1 μg/ml",1563 counts per minute
same,"proliferation, 3HT uptake","[2]; Test A, 1 × 10^−2 μg/ml",3108 counts per minute
same,"proliferation, 3HT uptake","[2]; Test A, 1 × 10^−3 μg/ml",2867 counts per minute
same,"proliferation, 3HT uptake","[2]; Test A, 1 × 10^−4 μg/ml",5540 counts per minute
same,"proliferation, 3HT uptake","[2]; Test A, 1 × 10^−5 μg/ml",3442 counts per minute
same,"proliferation, 3HT uptake","[2]; Test A, 5 × 10^−1 μg/ml",4667 counts per minute
same,"proliferation, 3HT uptake","[2]; Test A, 5 × 10^−2 μg/ml",2515 counts per minute
same,"proliferation, 3HT uptake","[2]; Test A, 7 × 10^−1 μg/ml",2475 counts per minute
same,"proliferation, 3HT uptake","[2]; Test B, 1 μg/ml",3275 counts per minute
same,"proliferation, 3HT uptake","[2]; Test B, 1 × 10^−2 μg/ml",3077 counts per minute
same,"proliferation, 3HT uptake","[2]; Test B, 1 × 10^−3 μg/ml",3800 counts per minute
same,"proliferation, 3HT uptake","[2]; Test B, 1 × 10^−4 μg/ml",2925 counts per minute
same,"proliferation, 3HT uptake","[2]; Test B, 1 × 10^−5 μg/ml",3645 counts per minute
same,"proliferation, 3HT uptake","[2]; Test B, 5 × 10^−1 μg/ml",5405 counts per minute
same,"proliferation, 3HT uptake","[2]; Test B, 5 × 10^−2 μg/ml",4280 counts per minute
same,"proliferation, 3HT uptake","[2]; Test B, 7 × 10^−1 μg/ml",4302 counts per minute
same,cells positive for IL-2 receptors,"[5]; 1 μg/ml, 24 hours incubation",5%
"Cl[Te](Cl)(c1ccccc1)c1ccccc1 [Ph2TeCl2, reference compound]",number of colonies / growth compared with control,[6],did not inhibit their growth
same,inhibition of growth,[7],"none of the complex, Ph2TeCl2 or Ph3TeCl inhibited the growth"
equimolar complex of TeO2 and ethylene glycol [Example 7(a)],proliferation of human mononuclear cells (3H methyl-thymidine),"[4]; 1 × 10^−4 μg/ml, listed as Ex. 7(a)",4321 and 2332
same,proliferation of human mononuclear cells (3H methyl-thymidine),"[4]; 5 × 10^−2 μg/ml, listed as Ex. 7(a)",5953 and 5532
same,"IL-2 content, cpm",[8]; 1 μg/ml H2O as drinking water over 4 days,32843 cpm
same,"IL-2 content, cpm",[8]; [10],42500 cpm
same,Percent increase as compared to control,[8]; [10],+30%
same,"IL-2 content, cpm",[8]; 25 μg/ml H2O as drinking water over 4 days,36815 cpm
same,inducing lymphokine production when given orally,[8]; orally in an aqueous diluent,active
same,"proliferation, 3HT uptake","[2]; Test B, 1 μg/ml",9315 counts per minute
same,"proliferation, 3HT uptake","[2]; Test B, 1 × 10^−2 μg/ml",6418 counts per minute
same,"proliferation, 3HT uptake","[2]; Test B, 1 × 10^−3 μg/ml",5167 counts per minute
same,"proliferation, 3HT uptake","[2]; Test B, 1 × 10^−4 μg/ml",5372 counts per minute
same,"proliferation, 3HT uptake","[2]; Test B, 1 × 10^−5 μg/ml",6397 counts per minute
same,"proliferation, 3HT uptake","[2]; Test B, 5 × 10^−1 μg/ml",8688 counts per minute
same,"proliferation, 3HT uptake","[2]; Test B, 5 × 10^−2 μg/ml",5538 counts per minute
same,"proliferation, 3HT uptake","[2]; Test B, 7 × 10^−1 μg/ml",5250 counts per minute
same,increase of proliferation of human mononuclear cells,[9],10 fold
"Cl[Te](c1ccccc1)(c1ccccc1)c1ccccc1 [Ph3TeCl, reference compound]",number of colonies / growth compared with control,[6],did not inhibit their growth
same,inhibition of growth,[7],"none of the complex, Ph2TeCl2 or Ph3TeCl inhibited the growth"
"Phytohemagglutinin M [Phytohemagglutinin M (Difco), reference compound]","proliferation, 3HT uptake","[2]; Test A, positive control, concentration not given","Phytohemagglutinin M (Difco) 195,432 counts per minute"
same,"proliferation, 3HT uptake","[2]; Test B, positive control, concentration not given","Phytohemagglutinin M (Difco) 125,272 counts per minute"
same,cells positive for IL-2 receptors,"[5]; in the presence of PHA, concentration not given",80%
